Our source for the Ki values is BindingDB's records for doi:10.7270/Q2HT2MQ5 (Nmmlsc, 2009).

The target in this test is Cell division control protein 42 homolog (Homo sapiens, UniProt P60953). The test can be described thus: wild-type Cdc42 nucleotide-binding inhibitors, SAR follow-up, biochemical, bead-based multiplex flow cytometry, oxadiazole series (AID 2037). The note with it: inactive by the depositor's call.
Sequence of Cell division control protein 42 homolog (P60953 whole entry): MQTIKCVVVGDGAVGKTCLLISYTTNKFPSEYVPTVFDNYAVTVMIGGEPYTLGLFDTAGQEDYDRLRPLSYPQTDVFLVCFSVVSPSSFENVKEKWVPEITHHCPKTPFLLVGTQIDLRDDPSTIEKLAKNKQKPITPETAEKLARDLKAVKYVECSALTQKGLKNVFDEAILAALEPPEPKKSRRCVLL

`COc1ccc(-c2noc(CCC(=O)N3CCN(c4ccc(OC)cc4)CC3)n2)cc1` [3-[3-(4-methoxyphenyl)-1,2,4-oxadiazol-5-yl]-1-[4-(4-methoxyphenyl)piperazin-1-yl]propan-1-one]: the Ki came to 100 nM.
